According to paper PMC5429698, “Biochemical analysis of leishmanial and human GDP-Mannose Pyrophosphorylases and selection of inhibitors as new leads” (Scientific Reports, 2017):
“And” between values parts separate entries of the source, which are not always exact repeats. Equal values may be shown once. Read-outs that look alike come from different tables or passages of the source.

Assays:
LmGDP-MP = LmGDP-MP (Leishmania mexicana, UniProt E9AW11); test: biochemical; format: biochemical; details: for Km: read-out: Km (µM) ± SD of LmGDP-MP
Sequence of LmGDP-MP (E9AW11 entry or part of it): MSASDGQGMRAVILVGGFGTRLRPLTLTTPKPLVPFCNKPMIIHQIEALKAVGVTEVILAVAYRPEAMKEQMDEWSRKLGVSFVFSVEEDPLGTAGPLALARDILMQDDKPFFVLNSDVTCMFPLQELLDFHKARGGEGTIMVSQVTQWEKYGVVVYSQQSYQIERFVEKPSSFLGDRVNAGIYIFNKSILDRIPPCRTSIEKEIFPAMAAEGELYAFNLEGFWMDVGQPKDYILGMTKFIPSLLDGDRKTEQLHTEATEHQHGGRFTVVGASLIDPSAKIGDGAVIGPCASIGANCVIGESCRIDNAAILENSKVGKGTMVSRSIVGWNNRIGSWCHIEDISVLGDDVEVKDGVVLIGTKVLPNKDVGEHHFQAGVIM
Protocol: (§1) GDP-MP catalyzes the following reaction: Man‐1‐P+GTP→GDP−Mannose+Pyrophosphate The reaction media were buffered at pH optima and contained optimal concentrations of Man-1-P, GTP, GDP-MP and Mg^2+ determined for each purified GDP-MP (Fig. 2d), supplemented with DTT (1 mM). Inorganic pyrophosphatase, which hydrolyses the inorganic pyrophosphates generated by the GDP-MPs in inorganic phosphates, was added at 0.1 U/ml (Sigma-Aldrich). Inorganic pyrophosphatase was added in excess to the reaction medium in order to minimize the probability that the putative inhibitors of GDP-MPs interfere with this enzyme. The reaction was initiated by the addition of GDP-MP, and was stopped after adding 100 µl of revelation buffer containing malachite green (0.03% w/v), ammonium molybdate (0.2% w/v) and Triton X-100 (0.05% v/v) in HCl (0.7 M) for 5 min at the optimal temperature. The quantity of inorganic phosphate generated, representing GDP-MP activity, was determined by measuring OD650nm (Lab systems Multiskan MS). The molar extinction coefficient ε of the end product detected was determined by measuring OD650nm with a range of inorganic phosphate concentrations diluted in the revelation buffer and was calculated at 27207 M^−1 cm^−1 (Supplementary Fig. S2). The kinetic constants K m, V m and k cat were determined by non linear regression using GraphPad Prism 6.0.
(§2) Enzyme activity was measured as described above in the presence of 100 µM of compounds and the percentage of inhibition was calculated in reference to untreated enzyme. As a control, compounds were evaluated in parallel in the same conditions on inorganic pyrophosphatase alone in order to discard false-positives. […] Furthermore, no effect was observed on the activity of the three purified GDP-MPs with 1% DMSO, corresponding to the maximal solvent concentration used at 100 µM of compound. Compounds presenting a minimum of 50% inhibition on a leishmanial GDP-MP were subsequently selected to determine their type of inhibition and their K i values. Inhibition data were fitted to competitive, non-competitive or uncompetitive models of enzyme inhibition by non linear least squares regression analysis using GraphPad Prism 6.0.

LdGDP-MP = LdGDP-MP (Leishmania donovani, UniProt E9BG32); test: biochemical; details: Man-1-P 10-100 µM, GTP 100 µM
Sequence of LdGDP-MP (E9BG32 entry or part of it): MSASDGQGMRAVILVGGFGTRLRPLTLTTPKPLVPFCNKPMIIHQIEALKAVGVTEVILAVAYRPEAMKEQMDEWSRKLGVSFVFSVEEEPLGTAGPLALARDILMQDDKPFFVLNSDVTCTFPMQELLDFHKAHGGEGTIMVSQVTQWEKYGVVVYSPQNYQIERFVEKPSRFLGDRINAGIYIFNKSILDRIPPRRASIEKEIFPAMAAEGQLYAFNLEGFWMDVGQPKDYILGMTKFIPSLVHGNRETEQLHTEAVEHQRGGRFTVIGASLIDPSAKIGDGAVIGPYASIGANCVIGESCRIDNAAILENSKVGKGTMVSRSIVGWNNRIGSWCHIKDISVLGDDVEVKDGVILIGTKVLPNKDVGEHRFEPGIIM
Protocol: as §1, with “The reaction was initiated by the addition of GDP-MP, and was stopped after adding 100 µl of revelation buffer containing malachite green (0.03% w/v), ammonium molybdate (0.2% w/v) and Triton X-100 (0.05% v/v) in HCl (0.7 M) for 5 min at the optimal temperature.” left out
(§3) Enzyme activity was measured as described above in the presence of 100 µM of compounds and the percentage of inhibition was calculated in reference to untreated enzyme. […]

hGDP-MP = molecular target: T1, hGDP-MP (Homo sapiens, UniProt Q9Y5P6); test: GDP-MP enzymatic assay (malachite green) on purified hGDP-MP; format: biochemical
T1 construct: made in house; host or cells: E. coli BL21(DE3), co-transformed with chaperone plasmid pG-KJE3
T1 sequence (Q9Y5P6 whole entry): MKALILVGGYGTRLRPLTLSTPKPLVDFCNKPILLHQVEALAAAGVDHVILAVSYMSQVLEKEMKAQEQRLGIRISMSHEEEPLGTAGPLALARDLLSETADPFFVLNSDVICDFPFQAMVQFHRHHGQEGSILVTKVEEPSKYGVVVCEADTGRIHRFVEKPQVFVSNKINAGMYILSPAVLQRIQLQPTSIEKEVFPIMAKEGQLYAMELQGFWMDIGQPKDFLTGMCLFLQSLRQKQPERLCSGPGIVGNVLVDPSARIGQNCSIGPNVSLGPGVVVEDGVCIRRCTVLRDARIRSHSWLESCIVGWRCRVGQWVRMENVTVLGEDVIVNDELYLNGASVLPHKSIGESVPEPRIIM
Protocol: as §1, with “The reaction was initiated by the addition of GDP-MP, and was stopped after adding 100 µl of revelation buffer containing malachite green (0.03% w/v), ammonium molybdate (0.2% w/v) and Triton X-100 (0.05% v/v) in HCl (0.7 M) for 5 min at the optimal temperature.” left out
as §3

[1] = system: L. donovani axenic amastigotes; test: Antileishmanial evaluation on axenic amastigotes (resazurin); format: cell-based; details: 72 h treatment, 37 °C, read-out: IC50 (µM) ± SD L. donovani axenic amastigotes
Protocol: (§4) The evaluations of activity on axenic and intramacrophage amastigotes were adapted from the protocols previously described. Briefly, for the evaluation on axenic amastigotes, two fold serial dilutions of the compounds from a maximal concentration of 100 µM were performed in 100 µl of complete medium (see above) in 96-well microplates. Axenic amastigotes were then added to each well at a density of 10^6/ml in a 200 µl final volume. After 72 h of treatment at 37 °C for L. donovani or at 32 °C for L. mexicana with 5% CO2, 20 µl of resazurin (450 µM) was added to each well and further incubated in the dark for 24 h at 37 °C for L. donovani or at 32 °C for L. mexicana with 5% CO2. In living cells, resazurin is reduced in resorufin and this conversion is monitored by measuring OD570nm (resorufin) and OD600nm (resazurin; Lab systems Multiskan MS). The activity of the compounds was expressed as IC50. Miltefosine was used as the reference drug.

[2] = system: L. mexicana axenic amastigotes; test: as above; format: cell-based
Protocol: as §4

[3] = system: L. donovani intramacrophage amastigotes in infected RAW.264.7 macrophages; test: Antileishmanial evaluation on intramacrophage amastigotes, RAW264.7 host; format: cell-based; details: for IC50: 48 h treatment, read-out: IC50 (µM) ± SD L. donovani infected RAW.264.7 macrophages
Protocol: (§5) Concerning the evaluation on intramacrophage amastigotes, RAW 264.7 macrophages (from ATCC) and bone marrow derived macrophages (BMDM) were plated in 96-well microplates at a density of 2 × 10^4 cells per well and incubated for 24 h at 37 °C with 5% CO2 for RAW264.7 cells or at 37 °C with 7% CO2 for BMDM. Axenic amastigotes were differenciated as described above, centrifuged at 2,000 g for 10 min, resuspended in DMEM complete medium, and added to each well to reach a 16:1 parasite to macrophage ratio. After 24 h of infection at 37 °C with 5% CO2 for RAW264.7 cells or at 37 °C with 7% CO2 for BMDM, extracellular parasites were removed, and DMEM complete medium (100 µl) containing two fold serial dilutions of the compounds from a maximal concentration of 100 µM was added to each well. After 48 h of treatment, the medium was removed and replaced by DirectPCR Lysis Reagent (100 µl; Euromedex) before 3 freeze-thaw cycles at room temperature, addition of 50 µg/ml proteinase K, and a final incubation at 55 °C overnight to allow cell lysis. 10 µl of each cell extract was then added to 40 µl of DirectPCR Lysis reagent containing Sybr Green I (0.05%; Invitrogen). DNA fluorescence was monitored using Mastercycler® realplex (Eppendorf). The activity of the compounds was expressed as IC50. Miltefosine was used as the reference drug.

[4] = system: L. donovani intramacrophage amastigotes in infected BMDM; test: Antileishmanial evaluation on intramacrophage amastigotes, BMDM host; format: cell-based; details: for Selectivity index (CC50/IC50) L. donovani BMDM: CC50 BMDM / IC50 infected BMDM; for IC50: Leishmania donovani, BMDM, 48 h treatment, read-out: IC50 (µM) ± SD L. donovani infected BMDM
Protocol: as §5

[5] = system: L. mexicana intramacrophage amastigotes in infected BMDM; test: microbe, parasite or virus in culture; format: cell-based; details: for IC50: Leishmania mexicana, BMDM, 48 h, 48 h treatment, read-out: IC50 (µM) ± SD L. mexicana infected BMDM
Protocol: as §5

[6] = system: L. mexicana intramacrophage amastigotes in infected RAW.264.7 macrophages; test: microbe, parasite or virus in culture; format: cell-based; details: for IC50: 48 h treatment, read-out: IC50 (µM) ± SD L. mexicana infected RAW.264.7 macrophages
Protocol: as §5

Cytotoxicity (resazurin) [7] = format: cell-based; details: mouse, RAW264.7 macrophages; 48 h incubation; read-out: Cytotoxicity CC50 (µM) ± SD RAW264.7 macrophages
Protocol: (§6) Cells were plated in 96-well microplates at a density of 2 × 10^4 cells per well. After an incubation of 24 h at 37 °C with 5% CO2 for RAW264.7 cells or at 37 °C with 7% CO2 for BMDM, the medium was removed in each well, and 100 µl of DMEM complete medium containing two fold serial dilutions of the compounds was added to each well. […] Cell viability was then monitored as described above.

Cytotoxicity (resazurin) [8] = format: cell-based, Balb/c mice; details: Balb/c, mouse, bone marrow derived macrophages (BMDM); 48 h incubation; read-out: Cytotoxicity CC50 (µM) ± SD BMDM
Protocol: as §6

[9] = system: inorganic pyrophosphatase; test: Control for false positives on inorganic pyrophosphatase alone; format: biochemical; details: compound at 100 µM, same conditions as the GDP-MP assay
Protocol: as §2

[10] = system: leishmanial GDP-MP (LdGDP-MP and/or LmGDP-MP); test: Screen of the 100 compound library at 100 µM on purified leishmanial GDP-MPs; format: biochemical, Leishmania; details: compound at 100 µM
Protocol: as §1, §2

L. major GDP-MP = system: L. major GDP-MP; parameters: method as in PMID 20160053; details: high throughput screening; cited from earlier work
[11] = system: L. major intramacrophage amastigotes; parameters: method as in PMID 20160053; details: cited from earlier work
[12] = CC50 RAW264.7 / IC50 infected RAW264.7
[13] = Leishmania donovani, RAW264.7, 48 h
[14] = Leishmania mexicana, RAW264.7, 48 h

Structure (SMILES): Nc1nc2c(ncn2[C@@H]2O[C@H](COP(=O)(O)OP(=O)(O)OP(=O)(O)O)[C@@H](O)[C@H]2O)c(=O)[nH]1 [GTP]
- Km (LmGDP-MP; other substrate held constant at 80 µM): 7.67 ± 2.28 µM

Structure (SMILES): O=P(O)(O)OC1O[C@H](CO)[C@@H](O)[C@H](O)[C@@H]1O (stereo partly shown) [Man-1-P, mannose-1-phosphate]
- Km (LmGDP-MP): 11.6 ± 1.76 µM

Structure (SMILES): CC(C)(C)c1ccc(CN2CCN(c3ccnc4cc(Cl)ccc34)CC2)cc1 [compound 100, reference compound]
- Ki (LdGDP-MP): 61.8 ± 16.3 µM
- Ki (hGDP-MP; Man-1-P 10-100 µM, GTP 100 µM): 19.7 µM and ~20 µM
- IC50 [1]: 30.7 ± 6.62 µM
- IC50 ([1]; Leishmania donovani, 72 h): 30 to 50 µM
- IC50 ([2]; 72 h treatment, 32 °C, read-out: IC50 (µM) ± SD L. mexicana axenic amastigotes): 49.25 ± 0.26 µM
- IC50 ([2]; Leishmania mexicana, 72 h, 72 h treatment, 32 °C, read-out: IC50 (µM) ± SD L. mexicana axenic amastigotes): 30 to 50 µM
- IC50 [3]: 19.5 ± 4.53 µM
- Selectivity index (CC50/IC50) L. donovani RAW264.7 macrophages [3, 12]: 3.2
- IC50 [3, 13]: 20 to 27.5 µM
- Selectivity index (CC50/IC50) L. donovani BMDM [4]: 4.2
- IC50 [4]: 12.2 ± 4.74 µM
- Selectivity index (CC50/IC50) L. mexicana BMDM ([5]; CC50 BMDM / IC50 infected BMDM): 4.3
- IC50 [5]: 12.1 ± 1.27 µM
- IC50 [6]: 27.5 ± 2.23 µM
- Selectivity index (CC50/IC50) L. mexicana RAW264.7 macrophages [6, 12]: 2.3
- IC50 [6, 14]: 20 to 27.5 µM
- CC50 at 48 h (Cytotoxicity (resazurin) [7]): 62.1 ± 7.39 µM
- CC50 at 48 h (Cytotoxicity (resazurin) [8]): 51.4 ± 3.45 µM
- inhibition of inorganic pyrophosphatase [9]: < 5%
- enzyme inhibition on a leishmanial GDP-MP [10]: above 50%
- IC50 (L. major GDP-MP): 0.58 µM
- IC50 [11]: 21.9 µM

Structure (SMILES): CCCCCCCCCCCCCCCCOP(=O)([O-])OCC[N+](C)(C)C [Miltefosine, reference compound]
- IC50 ([1]; Leishmania donovani, 72 h): 2.08 ± 0.24 µM
- IC50 ([2]; Leishmania mexicana, 72 h, read-out: IC50 (µM) ± SD L. mexicana axenic amastigotes, 72 h treatment, 32 °C): 23.7 ± 2.81 µM
- IC50 [3, 13]: 1.83 ± 0.22 µM
- Selectivity index (CC50/IC50) L. donovani BMDM [4]: >30.1
- IC50 [4]: 0.83 ± 0.12 µM
- Selectivity index (CC50/IC50) L. mexicana BMDM [5]: >0.5
- IC50 [5]: 51.4 ± 5.34 µM
- Selectivity index (CC50/IC50) L. mexicana RAW264.7 macrophages [6]: >0.5
- IC50 [6, 14]: 52.6 ± 4.98 µM
- CC50 at 48 h (Cytotoxicity (resazurin) [7]): > 25 µM
- CC50 at 48 h (Cytotoxicity (resazurin) [8]): > 25 µM

Structure (SMILES): O=c1[nH]cnc2c1ncn2[C@@H]1O[C@H](COP(=O)(O)OP(=O)(O)OP(=O)(O)O)[C@@H](O)[C@H]1O [ITP]
- LmGDP-MP activity with substrate analogue compared to GTP (LmGDP-MP; NTP at 100 µM): 22–24%
- hGDP-MP activity with substrate analogue compared to GTP (hGDP-MP; NTP at 100 µM): 22–24% and 24%
